Measurements: US20250188506A1, “ANTICOAGULANT HEPARIN-CHONDROITIN CHIMERIC SACCHARIDE MOLECULE AS WELL AS PREPARATION METHOD AND APPLICATION THEREOF” (SHANDONG UNIVERSITY, priority 2023, published 2025)

Key:
[1] = tested on: Xa factor; conditions: commercially available comparator, stated in advantages section; cited from earlier work
[2] = biological target: T1, PF4 (Homo sapiens, UniProt P02776)
T1 sequence (P02776 32-101): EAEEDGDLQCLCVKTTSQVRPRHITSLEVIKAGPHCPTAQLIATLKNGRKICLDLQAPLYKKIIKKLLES

**Q.** Which results are given for `CO[C@H]1O[C@H](COS(=O)(=O)O)[C@@H](O[C@@H]2O[C@@H](C(=O)O)[C@@H](O[C@H]3O[C@H](COS(=O)(=O)O)[C@@H](O[C@@H]4O[C@H](C(=O)O)[C@@H](O[C@H]5O[C@H](COS(=O)(=O)O)[C@@H](O)[C@H](O)[C@H]5NS(=O)(=O)O)[C@H](O)[C@H]4O)[C@H](OS(=O)(=O)O)[C@H]3NS(=O)(=O)O)[C@H](O)[C@H]2OS(=O)(=O)O)[C@H](O)[C@H]1NS(=O)(=O)O` [fondaparinux, fondaparinux sodium]?
**A.** neutralization of activity against the Xa factor by protamine (in words) [1]: almost completely not neutralized; average particle size of compounds formed with PF4 [2]: 61.57 nm
